Reference: patent publication US8329940B2, “18β-glycyrrhetinic acid derivatives and synthetic method thereof” (Kaohsiung Medical University, priority 2009, dated 2012)
Where two headings read alike, the source gives them in different places.

Columns and labels:
[1] = system: TNF-a formation from RAW 264.7 cells stimulated with LPS; conditions: for % of inhibition of TNF-a formation (in parentheses): at the highest concentration, RAW 264.7, LPS
Procedure: Nitric oxide (NO) in the cell medium is determined by the Griess reaction. In Western blot analysis, cells are washed with PBS twice and harvested in Laemmli sodium dodecyl sulfate (SDS) sample buffer to lyse the cells. Cell lysates are separated by 10% SDS-PAGE, and electrophoretically transferred to the poly(vinylidene difluoride) membranes. Membranes are blocked for 1 h at room temperature in TBST buffer (10 mM Tris-HCl, pH 8.0, 150 mM NaCl and 0.1% Tween 20) containing 5% nonfat milk. Membranes are washed with TBST buffer and then incubated with a monoclonal anti-iNOS antibody (1:1000 dilution) for 1 h. Following washed with TBST buffer, horseradish peroxidase-labeled anti-mouse IgG (1:10,000 dilution) is added therein at room temperature for 1 h. The blots are developed using ECL Western blotting reagents. Secretory levels of TNF-a in culture supernatants are determined by the EIA kit according to the procedure of manufacturer.

[2] = system: superoxide anion formation from rat neutrophils stimulated with fMLP/CB; assay: Superoxide anion formation in rat neutrophils stimulated by fMLP/CB; type: cell-based; conditions: for % of inhibition of superoxide anion formation, fMLP/CB (in parentheses): at the highest concentration, rat neutrophils; for IC50: rat neutrophils stimulated with fMLP (0.3 μM)/CB (5 μg/mL), 30 min
Procedure: Compound stock solution (30 mM in DMSO) is prepared and stored at −25° C. before experiment. In the superoxide anion generation experiments, neutrophils isolated from the peripheral blood of the rats are stimulated with formyl-Met-Leu-Phe (fMLP, 0.3 μM)/Cytochalasin B (CB, 5 μg/mL) for 30 min in the presence of cytochrome c, and the superoxide anion generation is measured in terms of superoxide dismutase-inhibitable cytochrome c reduction.

[3] = system: accumulation of NO2− in RAW 264.7 cells stimulated with LPS; assay: Nitrite (NO2−) accumulation in RAW 264.7 cells stimulated with LPS (Griess reaction); type: cell-based, Murine; conditions: for IC50: RAW 264.7 cells stimulated with LPS, 24 h, read-out: IC50 (B) accumulation of NO2− in RAW 264.7; for % of inhibition of NO2− accumulation (in parentheses): at the highest concentration, RAW 264.7, LPS
Procedure: Nitrite is a stable metabolite of NO in the media based on Griess reaction. […] To determine whether the inhibition of NO production in RAW 264.7 cells is attributed to the decrease of iNOS protein expression, Western blotting analysis is performed. Unstimulated cells expressed very low level of iNOS protein, whereas LPS 50 ng/mL induced a large amount of iNOS protein expression. […] Thus, the blockade of iNOS transcription has a critical role as evidenced from the parallelism of the inhibition of NO production and iNOS protein expression by compound 14.

[4] = system: superoxide anion formation from rat neutrophils stimulated with PMA; assay: Superoxide anion formation in rat neutrophils stimulated by PMA; type: cell-based; conditions: for % of inhibition of superoxide anion formation, PMA (in parentheses): at the highest concentration, rat neutrophils; for IC50: rat neutrophils stimulated with PMA
[5] = system: plasmid pBR322DNA; assay: Inhibition of oxidative DNA damage by O2− from xanthine/xanthine oxidase (agarose gel electrophoresis); conditions: 500 μM compound, xanthine (2 mM)/xanthine oxidase (0.7 U/mL), 20 min, 37° C.
Procedure: A mixture of the plasmid pBR322DNA ([…]) and xanthine (2 mM)/xanthine oxidase (0.7 U/mL) in 10 mM phosphate buffer (pH 7.4) is incubated for 20 min with 500 μlM of superoxide dismutase, quercetin, or compounds 2, 6, 7, 13, 14, and 20 in a total volume of 20 μL at 37° C., respectively. After incubating for 20 min, a 15 μL aliquot of mixture is loaded into 1.0% agarose gel containing ethidium bromide (0.05 μg/mL) in Tris-acetate-ethylenediaminetetraacetic acid (EDTA) buffer. The electrophoresis is carried out for 30 min at 100 V. Then the gels are illuminated with UV light and photographed.
ROS have been known to damage many biological macromolecules, for instance, with DNA being a significant target. The ability of 18β-GA derivatives to inhibit the DNA damage caused by O2^− (generated by xanthine (XA)/XO) is studied in vitro by agarose gel electrophoresis. […] For determined the antioxidant activities of these compounds, the radical scavenging activities and XO inhibitory activities of these compounds are analyzed.

[6] = target: xanthine oxidase (XO); assay: Xanthine oxidase activity assay; type: biochemical; conditions: xanthine as substrate, 25° C., 295 nm
Chain of xanthine oxidase (XO) (P47989 whole entry, species assumed): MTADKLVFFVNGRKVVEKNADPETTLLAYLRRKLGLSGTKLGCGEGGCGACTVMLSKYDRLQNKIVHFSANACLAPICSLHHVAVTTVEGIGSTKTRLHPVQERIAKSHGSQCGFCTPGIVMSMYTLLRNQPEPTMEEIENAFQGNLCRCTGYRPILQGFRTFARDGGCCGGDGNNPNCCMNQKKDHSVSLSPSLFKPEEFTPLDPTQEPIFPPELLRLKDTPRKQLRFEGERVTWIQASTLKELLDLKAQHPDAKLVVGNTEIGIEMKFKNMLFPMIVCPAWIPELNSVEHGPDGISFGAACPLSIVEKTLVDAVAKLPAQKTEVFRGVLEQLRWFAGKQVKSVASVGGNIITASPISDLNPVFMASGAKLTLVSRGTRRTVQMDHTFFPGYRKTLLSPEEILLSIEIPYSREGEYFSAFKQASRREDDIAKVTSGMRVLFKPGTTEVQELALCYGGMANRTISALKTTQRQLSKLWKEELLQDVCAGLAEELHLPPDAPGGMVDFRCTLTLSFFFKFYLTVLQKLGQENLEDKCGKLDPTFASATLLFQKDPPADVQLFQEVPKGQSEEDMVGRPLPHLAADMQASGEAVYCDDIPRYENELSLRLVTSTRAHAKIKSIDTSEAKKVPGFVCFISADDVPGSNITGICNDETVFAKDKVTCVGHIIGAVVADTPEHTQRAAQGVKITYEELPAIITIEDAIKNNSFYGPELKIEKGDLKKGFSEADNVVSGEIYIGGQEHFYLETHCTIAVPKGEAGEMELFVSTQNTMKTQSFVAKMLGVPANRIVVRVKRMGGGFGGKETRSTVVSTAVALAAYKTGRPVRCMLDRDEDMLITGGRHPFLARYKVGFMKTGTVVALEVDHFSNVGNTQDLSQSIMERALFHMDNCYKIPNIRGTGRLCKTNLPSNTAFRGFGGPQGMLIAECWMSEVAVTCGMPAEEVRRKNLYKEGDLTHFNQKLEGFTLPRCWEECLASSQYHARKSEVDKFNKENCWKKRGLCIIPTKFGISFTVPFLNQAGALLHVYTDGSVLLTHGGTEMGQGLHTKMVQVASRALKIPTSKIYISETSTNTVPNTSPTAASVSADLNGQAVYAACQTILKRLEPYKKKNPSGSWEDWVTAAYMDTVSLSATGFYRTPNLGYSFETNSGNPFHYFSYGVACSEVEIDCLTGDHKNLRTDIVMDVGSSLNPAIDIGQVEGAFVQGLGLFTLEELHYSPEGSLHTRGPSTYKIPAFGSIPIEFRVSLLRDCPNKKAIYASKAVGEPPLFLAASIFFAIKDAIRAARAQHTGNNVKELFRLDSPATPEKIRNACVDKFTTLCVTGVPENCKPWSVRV
Procedure: (§1) The xanthine oxidase activity with xanthine as the substrate is measured at 25° C., according to the protocol of Kong and associates (Cell Mol. […] After preincubation at 25° C. for 15 min, the reaction is initiated by addition of 60 μL of substrate solution (150 μM xanthine in the same buffer). The reaction is monitored at 295 nm. The xanthine oxidase activity is expressed as micromoles of uric acid per minute.

[7] = target: xanthine oxidase (XO) (Homo sapiens, UniProt P47989); assay: Xanthine oxidase activity assay; type: biochemical; conditions: xanthine as substrate, 25° C.
Chain of xanthine oxidase (XO) (Homo sapiens, UniProt P47989) (P47989 whole entry, species assumed): as above
Procedure: as §1

[8] = read-out: IC50 (C) TNF-a formation in RAW 264.7, RAW 264.7 cells stimulated with LPS
[9] = Mus musculus, RAW264.7, read-out: IC50 (C) TNF-a formation in RAW 264.7

Structure (SMILES) | % of inhibition of TNF-a formation (in parentheses) [1] | IC50 [1, 8] | % of inhibition of superoxide anion formation, fMLP/CB (in parentheses) [2] | IC50 [2] | IC50 [3] | % of inhibition of NO2− accumulation (in parentheses) [3] | % of inhibition of superoxide anion formation, PMA (in parentheses) [4] | IC50 [4] | further results
C=C(C)C1CCC2(C)C(C(=O)C=C3C4CC(C)(C(=O)O)CCC4(C)CCC32C)C1(C)CCC(=O)OC(C)C (stereo not drawn) [Compound 9] | 38.4 ± 14.6% | > 30 µM | 48.8 ± 6.6% | > 1 µM | > 30 µM | 39.8 ± 5.4% | −7.0 ± 3.0% | > 1 µM | 
C=C(C)C1CCC2(C)C(C(=O)C=C3C4CC(C)(C(=O)Nc5ccccc5)CCC4(C)CCC32C)C1(C)CCC(=O)OC (stereo not drawn) [Compound 15] |  | 15.5 ± 3.2 µM |  |  |  |  |  |  | 
C=C(C)C1CCC2(C)C(C(=O)C=C3C4CC(C)(C(=O)O)CCC4(C)CCC32C)C1(C)CCC(=O)OC (stereo not drawn) [Compound 8] | 21.2 ± 8.7% | > 10 µM | 81.9 ± 7.4% | > 10 µM | > 10 µM | 29.6 ± 10.0% | 7.4 ± 3.1% | > 10 µM | 
C=C(C)C1CCC2(C)C(C(=O)C=C3C4CC(C)(C(=O)Nc5ccccc5)CCC4(C)CCC32C)C1(C)CCC(=O)O (stereo not drawn) [Compound 21] |  | 27.7 ± 7.2 µM |  |  |  |  |  |  | 
C=C(C)C1CCC2(C)C(C(=O)C=C3C4CC(C)(C(=O)OC)CCC4(C)CCC32C)C1(C)CCC(=O)OC (stereo not drawn) [Compound 11] |  |  |  |  | > 30 µM | 44.3 ± 10.5% |  |  | inhibitory effect on NO accumulation in the media induced by LPS ([3]; each at 30 μM, RAW 264.7): about 40%
CC(=N)NCc1cccc(CN)c1 [Compound 1400W, N-(3-aminomethyl) benzylacetamidine, reference compound] |  |  |  |  | 1.5 ± 0.2 µM |  |  |  | 
C=C(C)C1CCC2(C)C(C(=O)C=C3C4CC(C)(C(=O)OC(C)C)CCC4(C)CCC32C)C1(C)CCC(=O)OC (stereo not drawn) [Compound 12] | 47.0 ± 1.3% | > 30 µM | −2.5 ± 11.9% | > 30 µM | > 30 µM | 43.0 ± 4.3% | 28.7 ± 15.9% | > 10 µM | inhibitory effect on NO accumulation in the media induced by LPS ([3]; each at 30 μM, RAW 264.7): about 40%
C=C(C)C1CCC2(C)C(C(=O)C=C3C4CC(C)(C(=O)OCc5ccccc5)CCC4(C)CCC32C)C1(C)CCC(=O)OC (stereo not drawn) [Compound 13] |  |  |  |  |  | 44.5 ± 4.2% |  |  | IC50 [1, 9]: 13.7 ± 4.3 µM; protective effect on oxidative DNA damage caused by O2− [5]: significant protective effects; IC50 [6]: 175 ± 0.9 µM; IC50 ([3]; Mus musculus, RAW264.7): > 30 µM; inhibition at 30 µM ([3]; Mus musculus, RAW264.7, each at 30 μM, RAW 264.7, read-out: inhibitory effect on NO accumulation in the media induced by LPS): ~40%; melting point: 32 to 38 °C; IC50 ([4]; Neutrophil): 17 ± 1.5 µM
C=C(C)C1CCC2(C)C(C(=O)C=C3C4CC(C)(C(=O)NC(C)C)CCC4(C)CCC32C)C1(C)CCC(=O)O (stereo not drawn) [Compound 20] |  |  |  | 9.8 ± 5.2 µM |  |  |  |  | protective effect on oxidative DNA damage caused by O2− [5]: significant protective effects; inhibition of XO activity [7]: weakly inhibit
COC(=O)C1(C)CCC2(C)CCC3(C)C(=CC(=O)C4C5(C)CCC(=O)OC(C)(C)C5CCC43C)C2C1 (stereo not drawn) [Compound 6, 3,4 lactone 30 methyl ester] |  |  |  |  |  |  |  |  | protective effect on oxidative DNA damage caused by O2− [5]: significant protective effects; IC50 [6]: 132 ± 2.7 µM; melting point: 166 to 171 °C; IC50 ([4]; Neutrophil): 12.9 ± 1.8 µM
CC1(C(=O)Nc2ccccc2)CCC2(C)CCC3(C)C(=CC(=O)C4C5(C)CCC(=O)OC(C)(C)C5CCC43C)C2C1 (stereo not drawn) [Compound 19] | 45.2 ± 14.6% | > 30 µM | −1.6 ± 4.4% | > 10 µM | > 30 µM | 20.5 ± 2.7% | 26.9 ± 3.0% | > 3 µM | 
C=C(C)C1CCC2(C)C(C(=O)C=C3C4CC(C)(C(=O)OC)CCC4(C)CCC32C)C1(C)CCC(=O)O (stereo not drawn) [Compound 10] |  | 26.1 ± 14.7 µM |  |  |  |  |  |  | 
COC(=O)C1(C)CCC2(C)CCC3(C)C(=CC(=O)C4C5(C)CCC(O)C(C)(C)C5CCC43C)C2C1 (stereo not drawn) [Compound 3] |  | 1.3 ± 0.4 µM |  |  |  |  |  |  | 
O=c1c(-c2ccc(O)cc2)coc2cc(O)cc(O)c12 [Genistein, genistein, reference compound] |  |  |  |  |  |  |  |  | IC50 [1, 9]: 26.5 ± 9.1 µM
C=C(C)C1CCC2(C)C(C(=O)C=C3C4CC(C)(C(=O)OCc5ccccc5)CCC4(C)CCC32C)C1(C)CCC(=O)O (stereo not drawn) [Compound 17] |  | 2.3 ± 0.5 µM |  |  |  |  |  |  | 
C=C(C)C1CCC2(C)C(C(=O)C=C3C4CC(C)(C(=O)O)CCC4(C)CCC32C)C1(C)CCC(=O)O (stereo not drawn) [Compound 7] |  |  |  | 7 ± 2 µM |  |  |  |  | protective effect on oxidative DNA damage caused by O2− [5]: significant protective effects; inhibition of XO activity [7]: weakly inhibit
CC1(C(=O)OCc2ccccc2)CCC2(C)CCC3(C)C(=CC(=O)C4C5(C)CCC(=O)OC(C)(C)C5CCC43C)C2C1 (stereo not drawn) [Compound 16] | 25.3 ± 9.9% | > 10 µM | −22.9 ± 7.6% | > 30 µM | > 10 µM | −2.3 ± 4.6% | −10.7 ± 10.2% | > 30 µM | 
CC1(C(=O)O)CCC2(C)CCC3(C)C(=CC(=O)C4C5(C)CCC(=O)OC(C)(C)C5CCC43C)C2C1 (stereo not drawn) [Compound 5] | −0.7 ± 2.7% | > 3 µM | 27.4 ± 9.2% | > 3 µM | > 3 µM | 3.0 ± 4.2% | −8.2 ± 11.8% | > 3 µM | 
CC(C)NC(=O)C1(C)CCC2(C)CCC3(C)C(=CC(=O)C4C5(C)CCC(=O)OC(C)(C)C5CCC43C)C2C1 (stereo not drawn) [Compound 18] | 9.7 ± 4.7% | > 10 µM | 2.7 ± 12.5% | > 30 µM | > 10 µM | 30.0 ± 11.9% | 48.2 ± 8.4% | > 30 µM | 
c1ccc2c(c1)[I+]c1ccccc1-2 [DPI, reference compound] |  |  |  | 2.7 ± 2 µM |  |  |  | 1.8 ± 0.4 µM | 
